Here are results for six molecules from ChEMBL document CHEMBL1123622, “Quantitative structure-activity relationships of the bitter thresholds of amino acids, peptides, and their derivatives” (J Med Chem, 1987).

Non-standard residues stand in square brackets, D forms with d. Residues, ends and D or L forms follow the SMILES beside them.

One experiment is described as follows: Bitter threshold value; B denotes 'bitter'. Format: functional.
Turning to `CC(C)C[C@@H](N)C(=O)NCC(=O)O` (H-[dL]-Gly-OH), the “Log 1/T” value is “Bitter”.

Regarding `CC(C)C[C@H](NC(=O)[C@H](C)NC(=O)[C@H](C)N)C(=O)O` (H-Ala-Ala-Leu-OH), the “Log 1/T” value is “Bitter”.

As to `CC[C@H](C)[C@H](NC(=O)[C@H](C)N)C(=O)N[C@@H](C)C(=O)O` (H-Ala-Ile-Ala-OH), the “Log 1/T” value is “Bitter”.

Take `CC(C)C[C@H](NC(=O)[C@H](C)NC(=O)CN)C(=O)O` (H-Gly-Ala-Leu-OH): the “Log 1/T” value is “Bitter”.

Another experiment in a line: Bitter threshold value; NI denotes'Not identifiable (Citrous or fruity taste)'. Type of experiment: functional.
As for `CC(C)[C@H](NC(=O)[C@@H]1CCCN1)C(=O)O` (H-Pro-Val-OH), the “Log 1/T” value was “Not identifiable”.

On to `O=C(O)CNC(=O)[C@@H]1CCCN1` (H-Pro-Gly-OH), for which the “Log 1/T” value is “Not identifiable”.
